In PubChem BioAssay AID330 (DTP/NCI, 2004):
“And” between values parts separate entries of the source, which are not always exact repeats. Equal values may be shown once. Toxic doses and inconclusive results are not listed.

Test system: P388 leukemia ip, CD2F1 mice, survival T/C
Experiment: NCI In Vivo Anticancer Drug Screen. Data for tumor model P388 Leukemia (intraperitoneal) in CD2F1 (CDF1) mice
Settings: endpoint: median survival time, higher = longer survival
Procedure, shortened: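 Mice carrying the transplanted tumor received test compound or vehicle. Survival was recorded in each group, and the value is the treated-group measurement divided by that of the vehicle-treated control group.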

[1] = dose: 12.5 mg/kg/injection, schedule: Q01DX009 (ip), vehicle: saline
[2] = dose: 25.0 mg/kg/injection, schedule: Q01DX009 (ip), vehicle: saline
[3] = dose: 50.0 mg/kg/injection, schedule: Q01DX009 (ip), vehicle: saline
[4] = dose: 100.0 mg/kg/injection, schedule: Q01DX009 (ip), vehicle: saline with Tween-80
[5] = dose: 200.0 mg/kg/injection, schedule: Q01DX009 (ip), vehicle: saline with Tween-80
[6] = dose: 6.25 mg/kg/injection, schedule: Q01DX009 (ip), vehicle: Klucel (hydroxypropylcellulose) (HPC)
[7] = dose: 12.5 mg/kg/injection, schedule: Q01DX009 (ip), vehicle: Klucel (hydroxypropylcellulose) (HPC)
[8] = dose: 25.0 mg/kg/injection, schedule: Q01DX009 (ip), vehicle: Klucel (hydroxypropylcellulose) (HPC)
[9] = dose: 100.0 mg/kg/injection, schedule: Q01DX009 (ip), vehicle: saline
[10] = dose: 200.0 mg/kg/injection, schedule: Q01DX009 (ip), vehicle: saline
[11] = dose: 50.0 mg/kg/injection, schedule: Q01DX009 (ip), vehicle: saline with Tween-80
[12] = dose: 12.5 mg/kg/injection, schedule: Q01DX009 (ip), vehicle: saline with Tween-80
[13] = dose: 25.0 mg/kg/injection, schedule: Q01DX009 (ip), vehicle: saline with Tween-80
[14] = dose: 100.0 mg/kg/injection, schedule: Q01DX001 (ip), vehicle: Klucel (hydroxypropylcellulose) (HPC)
[15] = dose: 200.0 mg/kg/injection, schedule: Q01DX001 (ip), vehicle: Klucel (hydroxypropylcellulose) (HPC)
[16] = dose: 400.0 mg/kg/injection, schedule: Q01DX001 (ip), vehicle: Klucel (hydroxypropylcellulose) (HPC)
[17] = dose: 60.0 mg/kg/injection, schedule: Q01DX005 (ip), vehicle: Klucel (hydroxypropylcellulose) (HPC)
[18] = dose: 50.0 mg/kg/injection, schedule: Q01DX005 (ip), vehicle: saline with Tween-80
[19] = dose: 100.0 mg/kg/injection, schedule: Q01DX005 (ip), vehicle: saline with Tween-80
[20] = dose: 200.0 mg/kg/injection, schedule: Q01DX005 (ip), vehicle: saline with Tween-80
[21] = dose: 6.25 mg/kg/injection, schedule: Q01DX009 (ip), vehicle: saline with Tween-80

Compound: CC(=O)OC1CCC2C3CCC4=C(C(=O)C=CC4(C)O)C3CCC12C (centres undefined)
- T/C (dose: 4.0 mg/kg/injection, schedule: Q01DX009 (ip), vehicle: Klucel (hydroxypropylcellulose) (HPC)): 93 % of control
- T/C (dose: 8.0 mg/kg/injection, schedule: Q01DX009 (ip), vehicle: Klucel (hydroxypropylcellulose) (HPC)): 90 % of control
- T/C (dose: 16.0 mg/kg/injection, schedule: Q01DX009 (ip), vehicle: Klucel (hydroxypropylcellulose) (HPC)): 101 % of control
- T/C (dose: 32.0 mg/kg/injection, schedule: Q01DX009 (ip), vehicle: Klucel (hydroxypropylcellulose) (HPC)): 88 % of control
- T/C (dose: 64.0 mg/kg/injection, schedule: Q01DX009 (ip), vehicle: Klucel (hydroxypropylcellulose) (HPC)): 108 % of control

Compound: O=c1[nH]c2ccccc2c2cc3ccccc3cc12
- T/C (dose: 6.25 mg/kg/injection, schedule: Q01DX009 (ip), vehicle: saline): 94 % of control
- T/C [1]: 86 % of control
- T/C [2]: 99 % of control
- T/C [3]: 96 % of control
- T/C [4]: 89 % of control
- T/C [5]: 89 % of control
- T/C (dose: 400.0 mg/kg/injection, schedule: Q01DX009 (ip), vehicle: saline with Tween-80): 89 % of control

Compound: COC(=O)C1CC2CC(O)CN(CCc3c1[nH]c1ccccc31)C2 (centres undefined)
- T/C (dose: 3.63 mg/kg/injection, schedule: Q01DX005 (ip), vehicle: Klucel (hydroxypropylcellulose) (HPC)): 104 % of control
- T/C (dose: 7.25 mg/kg/injection, schedule: Q01DX005 (ip), vehicle: Klucel (hydroxypropylcellulose) (HPC)): 100 % of control
- T/C (dose: 14.5 mg/kg/injection, schedule: Q01DX005 (ip), vehicle: Klucel (hydroxypropylcellulose) (HPC)): 104 % of control
- T/C (dose: 29.0 mg/kg/injection, schedule: Q01DX005 (ip), vehicle: Klucel (hydroxypropylcellulose) (HPC)): 89 % of control

Compound: CCC(CNc1cc(OC)cc2cccnc12)NC1CCCCC1 (centres undefined)
- T/C (dose: 12.5 mg/kg/injection, schedule: Q01DX005 (ip), vehicle: saline): 102 % of control
- T/C (dose: 25.0 mg/kg/injection, schedule: Q01DX005 (ip), vehicle: saline): 99 % of control
- T/C (dose: 50.0 mg/kg/injection, schedule: Q01DX005 (ip), vehicle: saline): 100 % of control and 102 % of control

Compound: CSc1nnc(CCC(=O)Nc2cc(Cl)c(Cl)cc2Cl)o1
- T/C (dose: 60.0 mg/kg/injection, schedule: Q01DX005 (ip), vehicle: saline with Tween-80): 106 % of control
- T/C (dose: 120.0 mg/kg/injection, schedule: Q01DX005 (ip), vehicle: saline with Tween-80): 105 % of control
- T/C (dose: 240.0 mg/kg/injection, schedule: Q01DX005 (ip), vehicle: saline with Tween-80): 98 % of control

Compound: NS(=O)(=O)c1ccc(Nc2c3ccccc3nc3cc(Cl)ccc23)cc1
- T/C [6]: 98 % of control
- T/C [7]: 98 % of control
- T/C [8]: 90 % of control
- T/C (dose: 100.0 mg/kg/injection, schedule: Q01DX009 (ip), vehicle: Klucel (hydroxypropylcellulose) (HPC)): 86 % of control

Compound: CC(=O)OCN(C)C=O
- T/C (dose: 125.0 mg/kg/injection, schedule: Q01DX005 (ip), vehicle: water): 96 % of control
- T/C (dose: 250.0 mg/kg/injection, schedule: Q01DX005 (ip), vehicle: water): 91 % of control
- T/C (dose: 500.0 mg/kg/injection, schedule: Q01DX005 (ip), vehicle: water): 98 % of control

Compound: Cc1ccccc1N(C=O)c1ccccc1C
- T/C [9]: 106 % of control
- T/C [10]: 93 % of control
- T/C (dose: 400.0 mg/kg/injection, schedule: Q01DX009 (ip), vehicle: saline): 98 % of control

Compound: COC(=O)c1ccc(SCCC(=O)CCl)cc1
- T/C [11]: 115 % of control
- T/C [4]: 116 % of control

Compound: CCCCCC(C[N+]1(C)CCOCC1)C(=O)/C=C/c1ccccc1 (centres undefined)
- T/C [12]: 96 % of control
- T/C [1]: 108 % of control
- T/C [13]: 108 % of control
- T/C [2]: 108 % of control

Compound: COc1cc(CNC(=O)CCCC/C=C\C(C)C)ccc1OC(=O)/C=C/c1ccccc1
- T/C (dose: 1.55 mg/kg/injection, schedule: Q01DX009 (ip), vehicle: Klucel (hydroxypropylcellulose) (HPC)): 100 % of control
- T/C (dose: 3.1 mg/kg/injection, schedule: Q01DX009 (ip), vehicle: Klucel (hydroxypropylcellulose) (HPC)): 106 % of control
- T/C (dose: 6.2 mg/kg/injection, schedule: Q01DX009 (ip), vehicle: Klucel (hydroxypropylcellulose) (HPC)): 103 % of control

Compound: CCN(CC)CCSc1nnc(-c2cc(OC)c(OC)c(OC)c2)o1
- T/C (dose: 50.0 mg/kg/injection, schedule: Q04DX003 (ip), vehicle: water): 100 % of control
- T/C (dose: 100.0 mg/kg/injection, schedule: Q04DX003 (ip), vehicle: water): 103 % of control

Compound: CCC1(c2ccccc2)CCCC(C(N)=O)C1=O (centres undefined)
- T/C [14]: 100 % of control
- T/C [15]: 99 % of control
- T/C [16]: 101 % of control

Compound: CSc1nc(N)c(NS(=O)(=O)c2ccc([N+](=O)[O-])cc2)c(=O)[nH]1
- T/C (dose: 15.0 mg/kg/injection, schedule: Q01DX005 (ip), vehicle: Klucel (hydroxypropylcellulose) (HPC)): 99 % of control
- T/C (dose: 30.0 mg/kg/injection, schedule: Q01DX005 (ip), vehicle: Klucel (hydroxypropylcellulose) (HPC)): 87 % of control
- T/C [17]: 91 % of control and 93 % of control

Compound: O=C1C(Cl)=C(Nc2ccccc2)C(O)N1c1ccccc1 (centres undefined)
- T/C [18]: 103 % of control
- T/C [19]: 96 % of control
- T/C [20]: 92 % of control

Compound: COc1ccc(C2=NC(c3ccccc3)NC(c3ccccc3)/C2=C/c2ccccc2)cc1 (centres undefined)
- T/C [21]: 100 % of control
- T/C [12]: 100 % of control
- T/C [13]: 105 % of control
- T/C [11]: 100 % of control

Compound: O=C(NS(=O)(=O)Cl)Oc1ccc(Cl)cc1C(=O)Oc1ccc(Cl)cc1
- T/C [17]: 90 % of control
- T/C (dose: 120.0 mg/kg/injection, schedule: Q01DX005 (ip), vehicle: Klucel (hydroxypropylcellulose) (HPC)): 93 % of control
- T/C (dose: 240.0 mg/kg/injection, schedule: Q01DX005 (ip), vehicle: Klucel (hydroxypropylcellulose) (HPC)): 86 % of control

Compound: COCC/C(COC)=N\N=C(/CCOC)COC
- T/C [4]: 109 % of control
- T/C (dose: 100.0 mg/kg/injection, schedule: Q04DX003 (ip), vehicle: saline sonified): 104 % of control
- T/C (dose: 200.0 mg/kg/injection, schedule: Q04DX003 (ip), vehicle: saline sonified): 100 % of control
- T/C (dose: 400.0 mg/kg/injection, schedule: Q04DX003 (ip), vehicle: saline sonified): 104 % of control

Compound: C=CCSC(=S)Nc1nc2ccc([N+](=O)[O-])cc2s1
- T/C [6]: 106 % of control
- T/C [7]: 109 % of control
- T/C [8]: 103 % of control

Compound: Cc1cc[n+]([O-])cc1
- T/C [3]: 105 % of control
- T/C [9]: 106 % of control
- T/C [10]: 97 % of control

Compound: O=c1[nH]c(=S)nc2nc[nH]n12
- T/C [13]: 100 % of control
- T/C [18]: 98 % of control
- T/C [11]: 97 % of control
- T/C [19]: 100 % of control
- T/C [4]: 100 % of control
- T/C [20]: 103 % of control
- T/C [5]: 106 % of control

Compound: Cc1oc(-c2ccc(F)cc2)nc1C(N)=O
- T/C [14]: 97 % of control
- T/C [15]: 94 % of control
- T/C [16]: 101 % of control

Compound: N#CC1=C(N)CCC1
- T/C [21]: 100 % of control
- T/C [12]: 95 % of control

Compound: Cc1c2ccncc2cc2c1[nH]c1ccccc12
- T/C (dose: 50.0 mg/kg/injection, schedule: Q04DX003 (ip), vehicle: saline with Tween-80): 160 % of control
- T/C (dose: 66.0 mg/kg/injection, schedule: Q04DX003 (ip), vehicle: saline with Tween-80): 209 % of control

Compound: CS(=O)(=O)/C=C/COC(=O)/C=C/c1ccccc1
- T/C (dose: 25.0 mg/kg/injection, schedule: Q01DX005 (ip), vehicle: Klucel (hydroxypropylcellulose) (HPC)): 102 % of control
- T/C (dose: 50.0 mg/kg/injection, schedule: Q01DX005 (ip), vehicle: Klucel (hydroxypropylcellulose) (HPC)): 102 % of control
- T/C (dose: 100.0 mg/kg/injection, schedule: Q01DX005 (ip), vehicle: Klucel (hydroxypropylcellulose) (HPC)): 100 % of control
- T/C (dose: 200.0 mg/kg/injection, schedule: Q01DX005 (ip), vehicle: Klucel (hydroxypropylcellulose) (HPC)): 102 % of control

Compound: Cc1ccc2c(ccc(/C=C/c3ccc(O)c4ncccc34)[n+]2C)c1
- T/C [12]: 116 % of control
- T/C [13]: 105 % of control
